Data reported in patent US7618787B2, “Method of screening compound capable of accelerating or inhibiting apoptosis, apoptosis accelarator and apoptosis inhibitor” (Hisamitsu Pharmaceutical Co., Inc., priority 2004, dated 2009).

Assays:
U2OS cells [1] = assay: Cell survival assay (MTT) of cisplatin-exposed cells; assay type: cell-based, human; settings: cisplatin 20 μM, time course (FIG. 1)
Description: U2OS cells were seeded at a density of 5×10^3 cells/well to a 96-well tissue culture dish supplemented with 100 μL of complete medium, and then allowed to adhere thereto overnight. A cisplatin stock solution was filtered and sterilized with a filter of 0.45 μm in pore size and diluted with phosphate-buffered saline (PBS). Cisplatin was added at the final concentration of 20 μM to the cultures, followed by cell viability assay. The viability was assayed by a modified 3-(4,5-dimethylthiazol-2-yl)-2,5-diphenyl-tetrazolium bromide (MTT) assay at given time points after the cisplatin addition. The MTT assay was performed by adding 10 μL of MTT solution to each well and incubating the cultures at 37° C. for 1 hour. A microplate reader (Model 450; Bio-Rad) was used to measure the absorbance of each well at 570 nm.

U2OS cells [2] = assay: RT-PCR analysis of RNA from U2OS cells treated with cisplatin; assay type: cell-based, human
Description: Total RNA was extracted from U2OS cells exposed to cisplatin (final concentration: 20 μM) by use of RNeasy Mini Kit (Qiagen) according to the manufacturer's protocol. Reverse transcription reaction was performed by mixing the total RNA (5 μg) with SuperScript II reverse transcriptase (Invitrogen) and random primers and incubating the mixture at 42° C. for 1 hour. After the completion of the reaction, cDNA was diluted with water and amplified with 15 μL of reaction solution (which contained 100 μM of each deoxynucleoside triphosphate, 1×PCR buffer, 1 μM of each primer, and 0.2 units of rTaq DNA polymerase (Takara Bio)). GAPDH expression was assayed and used as an internal standard. The PCR amplification products were separated by electrophoresis with 1.5% agarose gel in TAE buffer (40 mM Tris-Cl, 1 mM EDTA) and visualized with ethidium bromide (post-staining).

NF-κB [3] = assay: NF-κB reporter luciferase assay in U2OS cells; assay type: cell-based, human; settings: U2OS cells transfected with NF-κB reporter plasmid (FIG. 7)
Description: (§1) As described above, the amount of nuclear transactivating p65 subunit was not changed in U2OS cells treated with cisplatin. […] U2OS cells transfected with a NF-κB reporter plasmid were treated with cisplatin and assayed for their luciferase activities. […] L929 cells have been used widely for examining the TNF-α-dependent activation of NF-κB.

U2OS cells [4] = assay: Immunoblot of nuclear and cytoplasmic fractions of U2OS cells treated with cisplatin; assay type: cell-based, human
Description: To prepare nuclear and cytoplasmic extracts, cells were washed with ice-cold PBS and suspended in lysis buffer (pH 7.5; which contained 10 mM Tris-Cl, 1 mM EDTA, 0.5% Nonidet P-40 (NP-40), 1 mM PMSF, and protease inhibitor mix (Sigma)). The suspended cells were incubated at 4° C. for 30 minutes and centrifuged at 5000 rpm for 10 minutes to collect soluble fractions (which were used as cytoplasmic extracts). Insoluble fractions were washed with lysis buffer and dissolved in 1×Laemmli SDS-sample buffer (pH 6.8; which contained 62.5 mM Tris-Cl, 2% SDS, 2% β-mercaptoethanol, and 0.01% bromophenol blue) to collect nuclear extracts. The nuclear and cytoplasmic fractions were subjected to immunoblot analysis using an anti-lamin B monoclonal (Ab-1; Oncogene Research Products) or anti-α-tubulin monoclonal (DM1A; Cell Signaling Technology) antibody. Nuclear and cytoplasmic extracts were prepared from cisplatin-exposed or untreated U2OS cells and subjected to immunoblot with a given antibody. The purity of the nuclear and cytoplasmic fractions was confirmed by immunoblot using anti-lamin B and anti-α-tubulin antibodies, respectively. In agreement with the previously reported results, IKK-α was localized in both the nucleus and the cytoplasm, whereas IKK-β was largely expressed in the cytoplasm (FIG. 4). The amounts of IKK-α, IKK-β, and IKK-γ in the cytoplasm were not changed regardless of cisplatin treatment.

U2OS cells [5] = assay: Immunoblot of cell lysates of U2OS cells treated with cisplatin; assay type: cell-based, human
Description: Cells were transiently transfected with a total of 2 μg of expression plasmids. After 48 hours of the transfection, the cells were washed with ice-cold PBS and suspended in lysis buffer (pH 8.0; which contained 25 mM Tris-Cl, 137 mM sodium chloride, 1% Triton X-100, 1 mM phenylmethylsulfonyl fluoride (PMSF), and protease inhibitor mix (Roche Molecular Biochemicals)), followed by brief sonication. After centrifugation at 15000 rpm for 10 minutes, the supernatant was collected and assayed for protein concentrations by the Bradford assay (Bio-Rad). Equal amounts of lysates (protein amount: 50 μg) from the whole cells were denatured by boiling in Laemmli SDS-sample buffer, then separated on 10% SDS-polyacrylamide gel (SDS-PAGE), and transferred at room temperature for 1 hour to polyvinylidene difluoride (PVDF) membranes (Immobilon-P; Millipore) in Tris-glycine buffer containing 10% methanol. The membranes were blocked at room temperature for 1 hour with Tris-buffered saline (TBS-T) containing 5% skim milk and 0.1% Tween 20. Then, the membranes were reacted with an anti-FLAG monoclonal (M2; Sigma), anti-HA monoclonal (12CA5; Roche Molecular Biochemicals), anti-p73 monoclonal (Ab-4; NeoMarkers), anti-p53 monoclonal (DO-1; Oncogene Research Products), anti-Bax monoclonal (6A7; eBioscience), anti-IKK-α polyclonal (M-280; Santa Cruz Biotechnology), anti-IKK-β polyclonal (H-470; Santa Cruz Biotechnology), anti-IKK-γ polyclonal (FL-417; Santa Cruz Biotechnology), anti-p65 polyclonal (C-20; Santa Cruz Biotechnology), anti-IκB-α polyclonal (C-21; Santa Cruz Biotechnology), anti-actin polyclonal (20-33, Sigma), or anti p21^WAF1 polyclonal (H-164; Santa Cruz Biotechnology) antibody used as a primary antibody. After the reaction with the primary antibody, the membranes were reacted at room temperature for 1 hour with a horseradish peroxidase (HRP)-labeled goat anti-mouse or anti-rabbit secondary antibody (Cell Signaling Technologies) diluted 2000-fold in TBS-T. Immunoreactive proteins were finally visualized by use of an enhanced chemiluminescence system (ECL; Amersham Pharmacia Biotech) according to the manufacturer's instruction.

L929 cells = assay: Immunoblot of nuclear and cytoplasmic fractions of L929 cells; assay type: cell-based, mouse; settings: L929 cells (FIG. 9)
Description: To prepare nuclear and cytoplasmic extracts, cells were washed with ice-cold PBS and suspended in lysis buffer (pH 7.5; which contained 10 mM Tris-Cl, 1 mM EDTA, 0.5% Nonidet P-40 (NP-40), 1 mM PMSF, and protease inhibitor mix (Sigma)). The suspended cells were incubated at 4° C. for 30 minutes and centrifuged at 5000 rpm for 10 minutes to collect soluble fractions (which were used as cytoplasmic extracts). Insoluble fractions were washed with lysis buffer and dissolved in 1×Laemmli SDS-sample buffer (pH 6.8; which contained 62.5 mM Tris-Cl, 2% SDS, 2% β-mercaptoethanol, and 0.01% bromophenol blue) to collect nuclear extracts. The nuclear and cytoplasmic fractions were subjected to immunoblot analysis using an anti-lamin B monoclonal (Ab-1; Oncogene Research Products) or anti-α-tubulin monoclonal (DM1A; Cell Signaling Technology) antibody.
as §1

NF-κB [6] = assay: NF-κB reporter activation in L929 cells; assay type: cell-based, mouse; settings: L929 cells (FIG. 8)
Description: as §1

Molecule: N.N.[Cl][Pt][Cl] [cisplatin]
- cell viability / apoptosis of U2OS cells (U2OS cells [1]): underwent apoptosis in a time-dependent manner
- expression of IKK-α and IKK-β mRNAs (U2OS cells [2]; cisplatin 20 μM (FIG. 3)): not changed
- expression of p53 and p73α mRNAs (U2OS cells [2]; cisplatin 20 μM (FIG. 3)): not induced
- expression level of IKK-γ mRNA (U2OS cells [2]; cisplatin 20 μM, time-dependent (FIG. 3)): remarkable increase
- NF-κB-dependent transcriptional activation (NF-κB [3]): did not enhance NF-κB-dependent transcriptional activation
- cytoplasmic IκB-α (U2OS cells [4]; U2OS cytoplasmic fraction (FIG. 4)): decreased in a time-dependent manner
- nuclear accumulation of IKK-α (U2OS cells [4]; U2OS nuclear fraction (FIG. 4)): remarkably accumulated IKK-α in the nucleus in a time-dependent manner
- nuclear accumulation of p65-NF-κB subunit (RelA) (U2OS cells [4]; U2OS nuclear fraction (FIG. 4)): almost no effect on the nuclear accumulation of p65-NF-κB subunit
- IKK-α protein level (U2OS cells [5]; 12 to 36 hours after cisplatin exposure (FIG. 2)): remarkably accumulated IKK-α
- IKK-γ (NEMO) protein level (U2OS cells [5]; after 12 hours of cisplatin treatment): transiently increased
- p53 and p73α protein levels (U2OS cells [5]; cisplatin exposure (FIG. 2)): remarkably induced at protein levels
- amount of IKK-β (U2OS cells [5]; cisplatin treatment): hardly changed the amount of IKK-β
- phosphorylated form of IκB-α (U2OS cells [5]; cisplatin treatment): remarkably increased the phosphorylated form of IκB-α

Molecule: TNF-α
- nuclear accumulation of p65 (L929 cells): remarkably accumulated p65 in the nucleus
- NF-κB-dependent transcriptional activation (NF-κB [6]): NF-κB-dependent transcriptional activation was observed after 2 hours
